Test results as given in patent US20060246436A1 (priority 2002, published 2006).

Columns and labels:
[1] = test system: Ph chromosome-positive leukemia cells; settings: cited from earlier work
[2] = test system: peripheral blood cells positive for Ph chromosome; settings: of 18 CML patients; after five months of imatinib treatment
Excerpt: The remaining four were reserved to test the predictive scoring system later. Of the 22, two “learning” cases (the cases used for the construction of the prediction system described later) were in blast crisis phase and two “test” cases (the cases used for testing the correctness of the prediction system described later) were in accelerated phase.

SMILES: Cc1ccc(NC(=O)c2ccc(CN3CCN(C)CC3)cc2)cc1Nc1nccc(-c2cccnc2)n1 [imatinib, 4-(4-methylpiperazin-1-ylmethyl)-N-[4-methyl-3-(4-pyridin-3-ylpyrimidin-2-ylamino)phenyl]benzamide]
- adverse effects ([1]; CML patients): without severe adverse effects
- patients in whom Ph chromosome-positive leukemia cells are completely or partially reduced ([1]; CML patients): more than 60%
- CML patients induced into hematological complete remission [1]: around 90%
- patients with more than 65% of cells still positive for the Ph chromosome, non-responders [2]: six
